# Biological target: T1, rM3Ds (Rattus norvegicus, UniProt P08483, A177S/A238G/A489L/DEL261-437/DEL441-478/E258S/I253V/I483M/INS256[…]/K178L/K182A/K255R/K484R/K486H/L173F/L482A/M480V/R171S/R176Q/R179M/S481M/T174R/T181R/T257A/Y148C)
# T1 construct: host or cells: HEK293T
# T1 sequence (P08483 with tags, fused parts or gaps Y148C/R171S/L173F/T174R/R176Q/A177S/K178L/R179M/T181R/K182A/A238G/I253V/K255R/INS256[…]/T257A/E258S/DEL261-437/DEL441-478/M480V/S481M/L482A/I483M/K484R/K486H/A489L): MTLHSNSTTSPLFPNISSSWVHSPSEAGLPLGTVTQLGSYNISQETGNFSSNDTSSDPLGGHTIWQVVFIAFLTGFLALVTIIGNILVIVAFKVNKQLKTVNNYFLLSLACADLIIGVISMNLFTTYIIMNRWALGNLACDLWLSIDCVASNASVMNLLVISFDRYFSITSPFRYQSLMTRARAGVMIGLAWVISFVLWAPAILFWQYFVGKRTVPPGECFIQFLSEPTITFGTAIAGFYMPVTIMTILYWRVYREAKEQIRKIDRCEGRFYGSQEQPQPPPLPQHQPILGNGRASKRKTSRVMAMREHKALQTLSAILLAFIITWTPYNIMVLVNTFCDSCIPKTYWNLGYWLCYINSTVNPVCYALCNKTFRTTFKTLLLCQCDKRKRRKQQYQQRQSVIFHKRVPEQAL
# Assay: cAMP assay (CRE-luciferase reporter) in HEK293T cells expressing rM3Ds
# Assay type: cell-based
# Conditions: 100 μM of ACh, rM3Ds-transfected cells
smiles,measurement,value
"CC(=O)OCC[N+](C)(C)C [ACh, acetylcholine chloride]",luciferase activity,modest elevation in luciferase activity

# Source: article PMC12015759, “A humanized Gs-coupled DREADD for circuit and behavior modulation” (Frontiers in Cellular Neuroscience, 2025)
